Measured values published in US20060069132A1, “Azolecarboxamide herbicides” (priority 2004, published 2006).

Tests used:
[1] = test system: velvetleaf; experiment: Test B pre-/postemergence herbicide test; assay type: in vivo, Abutilon theophrasti; conditions: for Plant response rating (0 to 100 scale), Velvetleaf: 0 is no effect, preemergence
Outline: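 Evaluation is visual, comparing treated with control plants on a scale where 0 means no effect and 100 means full control. Treatments were preemergence, or postemergence on seedlings 2–18 cm tall, and held 13–15 days in the greenhouse.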

[2] = test system: bermudagrass; experiment: Test C pre-/postemergence herbicide test; assay type: in vivo, Cynodon dactylon; conditions: for Plant response rating (0 = no effect, 100 = complete control), Bermudagrass: 125 g ai/ha
Outline: (§1)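 Emerged plants at the 1- to 4-leaf stage (2–18 cm), or freshly planted seeds, received test chemicals in a non-phytotoxic solvent mixture with surfactant. Response was visually scored against controls after 12 to 14 days in the greenhouse, on a 0 (no effect) to 100 (complete control) scale.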

[3] = test system: cocklebur; experiment: Test C pre-/postemergence herbicide test; assay type: in vivo, Xanthium strumarium; conditions: for Plant response rating (0 = no effect, 100 = complete control), Cocklebur: 125 g ai/ha
Outline: as §1

[4] = test system: large crabgrass; experiment: Test C pre-/postemergence herbicide test; assay type: in vivo, Digitaria sanguinalis; conditions: for Plant response rating (0 = no effect, 100 = complete control), Crabgrass, Large: 125 g ai/ha
Outline: as §1

[5] = test system: kochia; experiment: Test C pre-/postemergence herbicide test; assay type: in vivo, Kochia scoparia; conditions: for Plant response rating (0 = no effect, 100 = complete control), Kochia: 125 g ai/ha
Outline: as §1

[6] = test system: yellow nutsedge; experiment: Test C pre-/postemergence herbicide test; assay type: in vivo, Cyperus esculentus; conditions: for Plant response rating (0 = no effect, 100 = complete control), Nutsedge, Yellow: 125 g ai/ha
Outline: as §1

[7] = test system: soybean; experiment: Test C pre-/postemergence herbicide test; assay type: in vivo, Glycine max; conditions: for Plant response rating (0 = no effect, 100 = complete control), Soybean: 125 g ai/ha
Outline: as §1

[8] = test system: ducksalad; experiment: Test C flooded paddy test; assay type: in vivo, Heteranthera limosa
[9] = 125 g ai/ha, 100 is complete control
[10] = 125 g ai/ha, visual rating, scale 0 (no effect) to 100 (complete control), postemergence
[11] = Postemergence, 500 g ai/ha, scale 0 (no effect) to 100 (complete control)
[12] = 62 g ai/ha, preemergence, scale 0 to 100, 0 no effect, 100 complete control
[13] = 250 g ai/ha, scale 0-100, preemergence
[14] = 500 g ai/ha, scale 0 to 100 (0 no effect, 100 complete control), visual, 12 to 14 days, preemergence
[15] = 62 g ai/ha, preemergence, scale 0 to 100
[16] = 125 g ai/ha, scale 0 to 100 (0 no effect, 100 complete control)
[17] = 250 g ai/ha, scale of 0 to 100, 0 is no effect, 100 is complete control
[18] = 500 g ai/ha, visual rating after 12 to 14 days, scale 0 to 100 (0 no effect, 100 complete control)

CCn1nc2c(c1C(=O)Nc1cc(C(=O)N(C)C)ccc1F)CCC2(C)C [Compound 352, N-[5-[(dimethylamino)carbonyl]-2-fluorophenyl]-2-ethyl-2,4,5,6-tetrahydro-6,6-dimethyl-3-cyclopentapyrazolecarboxamide]
Plant response rating (0 to 100 scale), Velvetleaf [1, 9]: 30
pest or weed control at 125 g/ha ([1]; Abutilon theophrasti, post-emergence, 336 h, 125 g ai/ha, visual rating, scale 0 (no effect) to 100 (complete control), read-out: Velvetleaf plant response rating): 10%
pest or weed control at 500 g/ha ([1]; Abutilon theophrasti, post-emergence, 336 h, postemergence, 500 g ai/ha, scale 0 to 100, 0 is no effect, 100 is complete control, read-out: Velvetleaf plant response rating): 60%
Plant response rating (0 = no effect, 100 = complete control), Bermudagrass ([2]; preemergence): 100
pest or weed control at 62 g/ha ([2]; Cynodon dactylon, pre-emergence, 312 h, 62 g ai/ha, preemergence, scale 0 to 100, 0 no effect, 100 complete control, read-out: Plant response rating, Bermudagrass): 95%
pest or weed control at 250 g/ha ([2]; Cynodon dactylon, pre-emergence, 312 h, 250 g ai/ha, scale 0-100, read-out: Plant response rating, Bermudagrass): 100%
pest or weed control at 500 g/ha ([2]; Cynodon dactylon, pre-emergence, 312 h, 500 g ai/ha, scale 0 to 100 (0 no effect, 100 complete control), visual, 12 to 14 days, read-out: Plant response rating, Bermudagrass): 100%
Plant response rating (0 = no effect, 100 = complete control), Cocklebur ([3]; preemergence): 0
pest or weed control at 62 g/ha ([3]; Xanthium strumarium, pre-emergence, 312 h, 62 g ai/ha, preemergence, scale 0 to 100, read-out: Plant response rating, Cocklebur): 0%
pest or weed control at 250 g/ha ([3]; Xanthium strumarium, pre-emergence, 312 h, 250 g ai/ha, scale 0-100, read-out: Plant response rating, Cocklebur): 0%
pest or weed control at 500 g/ha ([3]; Xanthium strumarium, pre-emergence, 312 h, 500 g ai/ha, scale 0 to 100 (0 no effect, 100 complete control), visual, 12 to 14 days, read-out: Plant response rating, Cocklebur): 30%
Plant response rating (0 = no effect, 100 = complete control), Crabgrass, Large ([4]; preemergence): 85
pest or weed control at 62 g/ha ([4]; Digitaria sanguinalis, pre-emergence, 312 h, 62 g ai/ha, preemergence, scale 0 to 100, read-out: Plant response rating, Crabgrass, Large): 55%
pest or weed control at 250 g/ha ([4]; Digitaria sanguinalis, pre-emergence, 312 h, 250 g ai/ha, scale 0-100, read-out: Plant response rating, Crabgrass, Large): 100%
pest or weed control at 500 g/ha ([4]; Digitaria sanguinalis, pre-emergence, 312 h, 500 g ai/ha, scale 0 to 100 (0 no effect, 100 complete control), visual, 12 to 14 days, read-out: Plant response rating, Crabgrass, Large): 100%
Plant response rating (0 = no effect, 100 = complete control), Kochia ([5]; preemergence): 85
pest or weed control at 62 g/ha ([5]; Bassia scoparia, pre-emergence, 62 g ai/ha, preemergence, scale 0 to 100, read-out: Plant response rating, Kochia): 80%
pest or weed control at 250 g/ha ([5]; Bassia scoparia, pre-emergence, 250 g ai/ha, scale 0-100, read-out: Plant response rating, Kochia): 100%
pest or weed control at 500 g/ha ([5]; Bassia scoparia, pre-emergence, 500 g ai/ha, scale 0 to 100 (0 no effect, 100 complete control), visual, 12 to 14 days, read-out: Plant response rating, Kochia): 100%
Plant response rating (0 = no effect, 100 = complete control), Nutsedge, Yellow ([6]; preemergence): 0
pest or weed control at 62 g/ha ([6]; Cyperus, pre-emergence, 62 g ai/ha, preemergence, scale 0 to 100, read-out: Plant response rating, Nutsedge, Yellow): 0%
pest or weed control at 250 g/ha ([6]; Cyperus, pre-emergence, 250 g ai/ha, scale 0-100, read-out: Plant response rating, Nutsedge, Yellow): 10%
pest or weed control at 500 g/ha ([6]; Cyperus, pre-emergence, 500 g ai/ha, scale 0 to 100 (0 no effect, 100 complete control), visual, 12 to 14 days, read-out: Plant response rating, Nutsedge, Yellow): 50%
Plant response rating (0 = no effect, 100 = complete control), Soybean ([7]; preemergence): 15
plant injury at 62 g/ha ([7]; Glycine max, pre-emergence, 62 g ai/ha, preemergence, scale 0 to 100, read-out: Plant response rating, Soybean): 0%
plant injury at 250 g/ha ([7]; Glycine max, pre-emergence, 250 g ai/ha, scale 0-100, read-out: Plant response rating, Soybean): 50%
plant injury at 500 g/ha ([7]; Glycine max, pre-emergence, 500 g ai/ha, scale 0 to 100 (0 no effect, 100 complete control), visual, 12 to 14 days, read-out: Plant response rating, Soybean): 70%
pest or weed control at 62 g/ha ([8]; Heteranthera limosa, 62 g ai/ha, scale 0 to 100, read-out: Ducksalad plant response rating): 20%
pest or weed control at 125 g/ha ([8]; Heteranthera limosa, 125 g ai/ha, scale 0 to 100 (0 no effect, 100 complete control), read-out: Ducksalad plant response rating): 65%
pest or weed control at 250 g/ha ([8]; Heteranthera limosa, 250 g ai/ha, scale of 0 to 100, 0 is no effect, 100 is complete control, read-out: Ducksalad plant response rating): 85%
pest or weed control at 500 g/ha ([8]; Heteranthera limosa, 500 g ai/ha, visual rating after 12 to 14 days, scale 0 to 100 (0 no effect, 100 complete control), read-out: Plant response rating, Ducksalad): 95%

CCNC(=O)c1cccc(NC(=O)c2nn(C(C)(C)C)nc2C)c1 [Compound 392]
Plant response rating (0 to 100 scale), Velvetleaf [1, 9]: 70
Velvetleaf plant response rating [1, 10]: 30
Velvetleaf plant response rating [1, 11]: 40
Plant response rating, Bermudagrass [2, 12]: 90
Plant response rating (0 = no effect, 100 = complete control), Bermudagrass ([2]; preemergence): 90
Plant response rating, Bermudagrass [2, 13]: 95
Plant response rating, Bermudagrass [2, 14]: 95
Plant response rating, Cocklebur [3, 15]: 0
Plant response rating (0 = no effect, 100 = complete control), Cocklebur ([3]; preemergence): 5
Plant response rating, Cocklebur [3, 13]: 20
Plant response rating, Cocklebur [3, 14]: 80
Plant response rating, Crabgrass, Large [4, 15]: 98
Plant response rating (0 = no effect, 100 = complete control), Crabgrass, Large ([4]; preemergence): 100
Plant response rating, Crabgrass, Large [4, 13]: 100
Plant response rating, Crabgrass, Large [4, 14]: 100
Plant response rating, Kochia [5, 15]: 75
Plant response rating (0 = no effect, 100 = complete control), Kochia ([5]; preemergence): 80
Plant response rating, Kochia [5, 13]: 100
Plant response rating, Kochia [5, 14]: 100
Plant response rating, Nutsedge, Yellow [6, 15]: 0
Plant response rating (0 = no effect, 100 = complete control), Nutsedge, Yellow ([6]; preemergence): 10
Plant response rating, Nutsedge, Yellow [6, 13]: 30
Plant response rating, Nutsedge, Yellow [6, 14]: 90
Plant response rating, Soybean [7, 15]: 5
Plant response rating (0 = no effect, 100 = complete control), Soybean ([7]; preemergence): 80
Plant response rating, Soybean [7, 13]: 90
Plant response rating, Soybean [7, 14]: 95
Ducksalad plant response rating ([8]; 62 g ai/ha, scale 0 to 100): 45
Ducksalad plant response rating [8, 16]: 75
Ducksalad plant response rating [8, 17]: 85
Plant response rating, Ducksalad [8, 18]: 85

CCc1nn(C(C)(C)C)nc1C(=O)Nc1cccc(C(=S)N(C)C)c1 [Compound 395]
Plant response rating (0 to 100 scale), Velvetleaf [1, 9]: 80
Velvetleaf plant response rating [1, 10]: 30
Velvetleaf plant response rating [1, 11]: 60
Plant response rating, Bermudagrass [2, 12]: 95
Plant response rating (0 = no effect, 100 = complete control), Bermudagrass ([2]; preemergence): 100
Plant response rating, Bermudagrass [2, 13]: 100
Plant response rating, Bermudagrass [2, 14]: 100
Plant response rating, Cocklebur [3, 15]: 0
Plant response rating (0 = no effect, 100 = complete control), Cocklebur ([3]; preemergence): 15
Plant response rating, Cocklebur [3, 13]: 80
Plant response rating, Cocklebur [3, 14]: 85
Plant response rating, Crabgrass, Large [4, 15]: 100
Plant response rating (0 = no effect, 100 = complete control), Crabgrass, Large ([4]; preemergence): 100
Plant response rating, Crabgrass, Large [4, 13]: 100
Plant response rating, Crabgrass, Large [4, 14]: 100
Plant response rating, Kochia [5, 15]: 100
Plant response rating (0 = no effect, 100 = complete control), Kochia ([5]; preemergence): 100
Plant response rating, Kochia [5, 13]: 100
Plant response rating, Kochia [5, 14]: 100
Plant response rating, Nutsedge, Yellow [6, 15]: 15
Plant response rating (0 = no effect, 100 = complete control), Nutsedge, Yellow ([6]; preemergence): 55
Plant response rating, Nutsedge, Yellow [6, 13]: 80
Plant response rating, Nutsedge, Yellow [6, 14]: 90
Plant response rating, Soybean [7, 15]: 75
Plant response rating (0 = no effect, 100 = complete control), Soybean ([7]; preemergence): 85
Plant response rating, Soybean [7, 13]: 100
Plant response rating, Soybean [7, 14]: 100
Ducksalad plant response rating ([8]; 62 g ai/ha, scale 0 to 100): 15
Ducksalad plant response rating [8, 16]: 20
Ducksalad plant response rating [8, 17]: 55
Plant response rating, Ducksalad [8, 18]: 55

CCc1nn(C(C)(C)C)nc1C(=S)Nc1cccc(C(=S)N(C)C)c1 [Compound 396]
Plant response rating (0 to 100 scale), Velvetleaf [1, 9]: 80
Velvetleaf plant response rating [1, 10]: 20
Velvetleaf plant response rating [1, 11]: 50
Plant response rating, Bermudagrass [2, 12]: 95
Plant response rating (0 = no effect, 100 = complete control), Bermudagrass ([2]; preemergence): 100
Plant response rating, Bermudagrass [2, 13]: 100
Plant response rating, Bermudagrass [2, 14]: 100
Plant response rating, Cocklebur [3, 15]: 0
Plant response rating (0 = no effect, 100 = complete control), Cocklebur ([3]; preemergence): 0
Plant response rating, Cocklebur [3, 13]: 0
Plant response rating, Cocklebur [3, 14]: 0
Plant response rating, Crabgrass, Large [4, 15]: 100
Plant response rating (0 = no effect, 100 = complete control), Crabgrass, Large ([4]; preemergence): 100
Plant response rating, Crabgrass, Large [4, 13]: 100
Plant response rating, Crabgrass, Large [4, 14]: 100
Plant response rating, Kochia [5, 15]: 0
Plant response rating (0 = no effect, 100 = complete control), Kochia ([5]; preemergence): 45
Plant response rating, Kochia [5, 13]: 100
Plant response rating, Kochia [5, 14]: 100
Plant response rating, Nutsedge, Yellow [6, 15]: 0
Plant response rating (0 = no effect, 100 = complete control), Nutsedge, Yellow ([6]; preemergence): 25
Plant response rating, Nutsedge, Yellow [6, 13]: 45
Plant response rating, Nutsedge, Yellow [6, 14]: 80
Plant response rating, Soybean [7, 15]: 0
Plant response rating (0 = no effect, 100 = complete control), Soybean ([7]; preemergence): 75
Plant response rating, Soybean [7, 13]: 100
Plant response rating, Soybean [7, 14]: 100
Ducksalad plant response rating ([8]; 62 g ai/ha, scale 0 to 100): 0
Ducksalad plant response rating [8, 16]: 0
Ducksalad plant response rating [8, 17]: 65
Plant response rating, Ducksalad [8, 18]: 75
